{"source": "patent US20240254508A1", "about": "“Multi-Genome Editor Construct and Uses Thereof” (Colossal Biosciences Inc., priority 2023, published 2024)", "key": {"[1]": {"system": "Super Editor incorporated HEK293T cells", "assay": "Editing enzyme induction in Super Editor incorporated HEK293T cells (fluorescent imaging / FACS)", "format": "cell-based", "details": "1/5/10 μg/mL doxycycline, 30/120/300 μg/mL cumate, 10/40/100 μM TMP, 0.25/1.25/6.25 μM Shield 1, 24-72 hours after treatment", "experimental": "FIGS. 3A-3D show fluorescence-activated cell sorting (FACS) of individual editor induction by super editor integrated HEK293T cells. FACS analysis was done for doxycycline induced Cas9 expression (FIG. 3A), cumate induced ABE expression (FIG. 3B), trimethoprim induced CBE expression (FIG. 3C), and shield 1 induced CGBE expression (FIG. 3D). Cells were fixed 72 hours after treatment for FACS quantification. Bar graphs plotting the induction ratios of each dose curve are provided for each different genome editor enzyme induction (FIGS. 3A-3D).\nIncorporation of Super Editor in HEK293T cells: 300,000 HEK293T cells were transfected by 4 μg of Super Editor plasmid and 3 μg PiggyBac transposase plasmid using 10 μL of Lipofectamine 2000 according to the manufacturer's protocol in a 6-well plate format. 2 μg/mL doxycycline was supplemented to the cells 48 hours in advance. The transfected cells were enriched twice by Fluorescence-activated cell sorting (FACS) gated with doxycycline induced TagRFP657 (far red) fluorescent signals 1 week and 3 weeks after transfection. The 1st enrichment selected the top 0.2% (10,000 cells) of the TagRFP657+ population. The 2nd enrichment selected the top 5% (374,000 cells) of the TagRFP657+ population.\nDoxycycline induced Cas9, reported by TagRFP657 (far red); cumate induced ABE, reported by TagBFP (blue); trimethoprim induced CBE reported by, eGFP (green); Shield 1 induced CGBE, reported by mCherry (red). Cells were analyzed by fluorescent imaging or FACS 24-72 hours after treatment. FACS analysis was performed on 4% PFA fixed samples (FIGS. 3A-3D). Inducers were refreshed everyday with new media."}, "HEK293T cells": {"system": "HEK293T cells", "assay": "Transient induction of single module plasmids in HEK293T cells", "format": "cell-based", "details": "2 μg/ml doxycycline, 120 μg/ml cumate, 10 μM TMP, 6.25 μM shield 1", "experimental": "HEK293T cells were transfected with the single module plasmids comprising the corresponding regulatory element. The HEK293T cells were treated with the corresponding inducers to generate expression of the genome editing enzyme along with the fluorescent marker accompanying each genome editing enzyme. HEK293T cells were transfected with a doxycycline inducible Cas9 editing enzyme, a cumate inducible ABE, a trimethoprim (TMP) inducible CBE, and a shield 1 inducible CGBE."}}, "data": [{"smiles": "CC(C)c1ccc(C(=O)O)cc1", "note": "[cumate]", "values": [{"measurement": "induction of editing enzyme expression, reported by fluorescent protein", "setting": "[1]", "result": "induced ABE"}, {"measurement": "expression of genome editing enzyme and fluorescent marker after inducer treatment", "setting": "HEK293T cells", "result": "ABE and BFP were expressed"}]}, {"smiles": "COc1cc(Cc2cnc(N)nc2N)cc(OC)c1OC", "note": "[trimethoprim]", "values": [{"measurement": "induction of editing enzyme expression, reported by fluorescent protein", "setting": "[1]", "result": "induced CBE"}, {"measurement": "expression of genome editing enzyme and fluorescent marker after inducer treatment", "setting": "HEK293T cells", "result": "CBE and eGFP were expressed"}]}, {"smiles": "CC[C@H](C(=O)N1CCCC[C@H]1C(=O)O[C@H](CCc1ccc(OC)c(OC)c1)c1cccc(OCCN2CCOCC2)c1)c1cc(OC)c(OC)c(OC)c1", "note": "[Shield 1]", "values": [{"measurement": "induction of editing enzyme expression, reported by fluorescent protein", "setting": "[1]", "result": "induced CGBE"}, {"measurement": "expression of genome editing enzyme and fluorescent marker after inducer treatment", "setting": "HEK293T cells", "result": "CGBE and mCherry were expressed"}]}]}
